Test results taken from PubChem BioAssay AID256 (DTP/NCI, 2004).
Inconclusive results and toxic doses are left out. The calls were made as follows: active = survival T/C of 150% or more; inactive = T/C below 125% in these data.

System: CD2F1 mice, L1210 leukemia ip, survival T/C
Test: NCI In Vivo Anticancer Drug Screen. Data for tumor model L1210 Leukemia (intraperitoneal) in CD2F1 (CDF1) mice
Conditions: higher = longer survival
Procedure, shortened: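 Each value reflects a quotient of treated over vehicle control outcomes in mice with a transplanted tumor.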

[1] = endpoint: mean survival time, dose: 200.0 mg/kg/injection, schedule: Q04DX003 (ip), vehicle: saline with Tween-80
[2] = endpoint: mean survival time, dose: 12.5 mg/kg/injection, schedule: Q01DX009 (ip), vehicle: other
[3] = endpoint: mean survival time, dose: 25.0 mg/kg/injection, schedule: Q01DX009 (ip), vehicle: other
[4] = endpoint: mean survival time, dose: 50.0 mg/kg/injection, schedule: Q01DX009 (ip), vehicle: other
[5] = endpoint: mean survival time, dose: 100.0 mg/kg/injection, schedule: Q01DX009 (ip), vehicle: other
[6] = endpoint: mean survival time, dose: 200.0 mg/kg/injection, schedule: Q01DX009 (ip), vehicle: other
[7] = endpoint: mean survival time, dose: 400.0 mg/kg/injection, schedule: Q01DX009 (ip), vehicle: saline
[8] = endpoint: mean survival time, dose: 100.0 mg/kg/injection, schedule: Q04DX003 (ip), vehicle: saline with Tween-80
[9] = endpoint: mean survival time, dose: 400.0 mg/kg/injection, schedule: Q04DX003 (ip), vehicle: saline with Tween-80
[10] = endpoint: mean survival time, dose: 100.0 mg/kg/injection, schedule: Q01DX001 (ip), vehicle: saline with Tween-80
[11] = endpoint: mean survival time, dose: 25.0 mg/kg/injection, schedule: Q01DX001 (ip), vehicle: saline with Tween-80
[12] = endpoint: mean survival time, dose: 50.0 mg/kg/injection, schedule: Q01DX001 (ip), vehicle: saline with Tween-80
[13] = endpoint: mean survival time, dose: 100.0 mg/kg/injection, schedule: Q01DX009 (ip), vehicle: saline
[14] = endpoint: mean survival time, dose: 100.0 mg/kg/injection, schedule: Q04DX003 (ip), vehicle: saline
[15] = endpoint: mean survival time, dose: 200.0 mg/kg/injection, schedule: Q01DX009 (ip), vehicle: saline
[16] = endpoint: mean survival time, dose: 200.0 mg/kg/injection, schedule: Q04DX003 (ip), vehicle: saline
[17] = endpoint: mean survival time, dose: 400.0 mg/kg/injection, schedule: Q04DX003 (ip), vehicle: saline
[18] = endpoint: mean survival time, dose: 50.0 mg/kg/injection, schedule: Q01DX009 (ip), vehicle: saline

Measured: T/C

CCn1c(=N)sc2ccc(C(=O)OC)cc21
inactive: endpoint: mean survival time, dose: 12.5 mg/kg/injection, schedule: Q04DX002 (ip), vehicle: saline with Tween-80 101 % of control | endpoint: mean survival time, dose: 25.0 mg/kg/injection, schedule: Q04DX002 (ip), vehicle: saline with Tween-80 96 % of control | endpoint: mean survival time, dose: 50.0 mg/kg/injection, schedule: Q04DX002 (ip), vehicle: saline with Tween-80 90 % of control | [1] 88 % of control

COc1ccc(C(=O)c2ncccc2C(=O)O)cc1OC
inactive: [2] 98 % of control | [3] 104 % of control | [4] 104 % of control | [5] 104 % of control | [6] 105 % of control

CC(=O)OCC1OC(n2ncc(=O)[nH]c2=O)C(OC(C)=O)C1OC(C)=O (configuration not stated)
inactive: endpoint: mean survival time, dose: 12.5 mg/kg/injection, schedule: Q03HX024 (ip), vehicle: saline 112 % of control | endpoint: mean survival time, dose: 25.0 mg/kg/injection, schedule: Q03HX024 (ip), vehicle: saline 116 % of control | endpoint: mean survival time, dose: 50.0 mg/kg/injection, schedule: Q03HX024 (ip), vehicle: saline 106 % of control | endpoint: mean survival time, dose: 100.0 mg/kg/injection, schedule: Q01DX001 (ip), vehicle: saline 106 % of control | endpoint: mean survival time, dose: 200.0 mg/kg/injection, schedule: Q01DX001 (ip), vehicle: saline 103 % of control | endpoint: mean survival time, dose: 400.0 mg/kg/injection, schedule: Q01DX001 (ip), vehicle: saline 106 % of control | [7] 108 % of control | endpoint: mean survival time, dose: 800.0 mg/kg/injection, schedule: Q01DX001 (ip), vehicle: saline 117 % of control | endpoint: mean survival time, dose: 800.0 mg/kg/injection, schedule: Q01DX009 (ip), vehicle: saline 93 % of control

Cc1cc(=O)n(C2CCCCC2)c(=NC2CCCCC2)o1
inactive: endpoint: mean survival time, dose: 100.0 mg/kg/injection, schedule: Q04DX002 (ip), vehicle: saline with Tween-80 100 % of control | endpoint: mean survival time, dose: 200.0 mg/kg/injection, schedule: Q04DX002 (ip), vehicle: saline with Tween-80 95 % of control | endpoint: mean survival time, dose: 400.0 mg/kg/injection, schedule: Q04DX002 (ip), vehicle: saline with Tween-80 95 % of control

CN(C1=CC(=O)c2ccccc2C1=O)C1CCCCC1
inactive: [8] 93 % of control | [1] 93 % of control | [9] 104 % of control

CC(=O)COc1cc(C)cc(C)c1
inactive: [10] 104 % of control | endpoint: mean survival time, dose: 200.0 mg/kg/injection, schedule: Q01DX001 (ip), vehicle: saline with Tween-80 95 % of control | endpoint: mean survival time, dose: 400.0 mg/kg/injection, schedule: Q01DX001 (ip), vehicle: saline with Tween-80 101 % of control

NC(=O)CCC(N)C(=O)O (configuration not stated)
inactive: endpoint: mean survival time, dose: 1.56 mg/kg/injection, schedule: Q01DX009 (ip), vehicle: saline 93 % of control | endpoint: mean survival time, dose: 3.13 mg/kg/injection, schedule: Q01DX009 (ip), vehicle: saline 104 % of control | endpoint: mean survival time, dose: 6.25 mg/kg/injection, schedule: Q01DX009 (ip), vehicle: saline 104 % of control | endpoint: median survival time, dose: 25.0 mg/kg/injection, schedule: Q01DX009 (ip), vehicle: saline 94 % of control | endpoint: median survival time, dose: 50.0 mg/kg/injection, schedule: Q01DX009 (ip), vehicle: saline 106 % of control | endpoint: median survival time, dose: 100.0 mg/kg/injection, schedule: Q01DX009 (ip), vehicle: saline 106 % of control | endpoint: median survival time, dose: 200.0 mg/kg/injection, schedule: Q01DX009 (ip), vehicle: saline 106 % of control | endpoint: median survival time, dose: 400.0 mg/kg/injection, schedule: Q01DX009 (ip), vehicle: saline 104 % of control

C/C=C/C(=O)Nc1ccc(Cl)c(Cl)c1
inactive: [11] 102 % of control | [12] 101 % of control | [10] 95 % of control

CCCCOC(=O)c1n[nH]c(C)c1N=NN1CCOCC1
inactive: endpoint: mean survival time, dose: 75.0 mg/kg/injection, schedule: Q01DX001 (ip), vehicle: other 105 % of control | endpoint: mean survival time, dose: 150.0 mg/kg/injection, schedule: Q01DX001 (ip), vehicle: other 97 % of control | endpoint: mean survival time, dose: 300.0 mg/kg/injection, schedule: Q01DX001 (ip), vehicle: other 103 % of control

O=[N+]([O-])c1ccc(Cl)c(S(=O)O)c1
inactive: [13] 95 % of control | [14] 110 % of control | [15] 106 % of control | [16] 102 % of control | [7] 103 % of control | [17] 106 % of control

Cc1ccc(S(=O)(=O)NCCN(CCNS(=O)(=O)c2ccc(C)cc2)S(=O)(=O)c2ccc(C)cc2)cc1
inactive: [2] 88 % of control | [3] 86 % of control | [4] 86 % of control | [5] 92 % of control | [6] 105 % of control

Cc1cc2c(C(C)C)c(O)c(O)cc2c(O)c1-c1c(C)cc2c(C(C)C)c(O)c(O)cc2c1O
inactive: endpoint: mean survival time, dose: 12.5 mg/kg/injection, schedule: Q01DX001 (ip), vehicle: saline with Tween-80 105 % of control | endpoint: mean survival time, dose: 12.5 mg/kg/injection, schedule: Q01DX009 (ip), vehicle: saline with Tween-80 100 % of control | [11] 102 % of control | endpoint: mean survival time, dose: 25.0 mg/kg/injection, schedule: Q01DX009 (ip), vehicle: saline with Tween-80 94 % of control | [12] 103 % of control | endpoint: mean survival time, dose: 50.0 mg/kg/injection, schedule: Q01DX009 (ip), vehicle: saline with Tween-80 90 % of control

O=C1Cc2ccccc2O1
inactive: endpoint: mean survival time, dose: 25.0 mg/kg/injection, schedule: Q01DX009 (ip), vehicle: saline 93 % of control | [18] 96 % of control | [13] 100 % of control | [15] 97 % of control

CC(Br)C(=O)NC(C)C(=O)O (configuration not stated)
inactive: [8] 92 % of control | [1] 108 % of control | [9] 121 % of control

CN(C)N=Nc1ccc(C(=O)N/N=C/c2ccc([N+](=O)[O-])cc2)cc1
inactive: [14] 97 % of control | [16] 93 % of control | [17] 93 % of control

C=CC(=O)NC12CC3CC(CC(C3)C1)C2
inactive: [14] 100 % of control | [16] 101 % of control | [17] 101 % of control

O=C1c2ccccc2C(=O)c2c(O)c(Cc3ccccn3)cc(O)c21
inactive: endpoint: mean survival time, dose: 100.0 mg/kg/injection, schedule: Q01DX009 (ip), vehicle: saline sonified 96 % of control | endpoint: mean survival time, dose: 200.0 mg/kg/injection, schedule: Q01DX009 (ip), vehicle: saline sonified 94 % of control | endpoint: mean survival time, dose: 400.0 mg/kg/injection, schedule: Q01DX009 (ip), vehicle: saline sonified 98 % of control

O=C1C(c2ccccc2)=C(c2ccccc2)c2c(-c3ccccc3)ccc(-c3ccccc3)c21
inactive: [8] 89 % of control | [1] 100 % of control | [9] 94 % of control

C/C(=N/O)c1ccc(C)cc1
inactive: endpoint: mean survival time, dose: 100.0 mg/kg/injection, schedule: Q01DX009 (ip), vehicle: saline with Tween-80 94 % of control | [8] 105 % of control | endpoint: mean survival time, dose: 200.0 mg/kg/injection, schedule: Q01DX009 (ip), vehicle: saline with Tween-80 91 % of control | [1] 107 % of control | endpoint: mean survival time, dose: 400.0 mg/kg/injection, schedule: Q01DX009 (ip), vehicle: saline with Tween-80 93 % of control | [9] 102 % of control

COCCCN1CCN(c2ccccc2OC)CC1
inactive: [18] 93 % of control | [13] 88 % of control | [14] 98 % of control | [16] 104 % of control
